Results published in US20230103250A1, “DRUG SUBSTANCE OF L[…] MEDICINAL COMPOSITION COMPRISING SAME” (Eisai R&D Management Co., Ltd., priority 2020, published 2023).

Assay: Particle size (D90) of lemborexant active pharmaceutical ingredient by laser diffraction/scattering
Assay type: physicochemical
Details: for Particle size (D90 (μm)): pulverized lemborexant API lots, Table 1; for D90 (μm): after pulverization with 160UPZ (Example 1, Table 2), Microtrack MT3300EXII
Experimental: The particle size of the granular material, which is a lemborexant active pharmaceutical ingredient, can be measured by a laser diffraction/scattering method.
A sample suspension is prepared by dispersing about 30 mg of a lemborexant active pharmaceutical ingredient in 50 mL of a 0.1% polysorbate 20 aqueous solution as a dispersion solvent. The sample suspension is put into a diffractometer and an appropriate amount of dispersion solvent is added. The particle size distribution of the sample suspension is measured, and the value of the particle size of the sample is recorded as a cumulative diameter distribution.
Particle size distribution measurement conditions for the diffractometer may be as follows.
Number of measurements: 3 times
Measurement time: 30 seconds
Transparency: Transparent
Particle refractive index: 1.81
Solvent refractive index: 1.33
The 90% cumulative diameter (D90) was measured with a particle size analyzer (Microtrack MT3300EXII). A sample suspension was prepared by dispersing about 30 mg of a lemborexant active pharmaceutical ingredient in 50 mL of a dispersion solvent 0.1% polysorbate 20 aqueous solution. The sample suspension was put into a particle size analyzer, and an appropriate amount of a dispersion solvent was added thereto. The particle size distribution of the sample suspension was measured, and the value of the particle size of the sample was recorded as a cumulative diameter distribution.
The measurement conditions for the particle size analyzer are as follows.
Flow rate: 50% Number of measurements: 3 times Measurement time: 30 seconds
Particle refractive index: 1.81 Solvent refractive index: 1.33

Cc1ncc(OC[C@@]2(c3cccc(F)c3)C[C@H]2C(=O)Nc2ccc(F)cn2)c(C)n1 [Lot 1]
Particle size (D90 (μm)) (listed as 1): 47 μm

Cc1ncc(OC[C@@]2(c3cccc(F)c3)C[C@H]2C(=O)Nc2ccc(F)cn2)c(C)n1 [Lot 2]
Particle size (D90 (μm)) (listed as 2): 18 μm

Cc1ncc(OC[C@@]2(c3cccc(F)c3)C[C@H]2C(=O)Nc2ccc(F)cn2)c(C)n1 [Lot 3]
Particle size (D90 (μm)) (listed as 3): 48 μm

Cc1ncc(OC[C@@]2(c3cccc(F)c3)C[C@H]2C(=O)Nc2ccc(F)cn2)c(C)n1 [Lot 4]
Particle size (D90 (μm)) (listed as 4): 32 μm

Cc1ncc(OC[C@@]2(c3cccc(F)c3)C[C@H]2C(=O)Nc2ccc(F)cn2)c(C)n1 [Lot 5]
Particle size (D90 (μm)) (listed as 5): 39 μm

Cc1ncc(OC[C@@]2(c3cccc(F)c3)C[C@H]2C(=O)Nc2ccc(F)cn2)c(C)n1 [Lot 6]
Particle size (D90 (μm)) (listed as 6): 23 μm

Cc1ncc(OC[C@@]2(c3cccc(F)c3)C[C@H]2C(=O)Nc2ccc(F)cn2)c(C)n1 [Lot 7]
Particle size (D90 (μm)) (listed as 7): 40 μm

Cc1ncc(OC[C@@]2(c3cccc(F)c3)C[C@H]2C(=O)Nc2ccc(F)cn2)c(C)n1 [Lot 8]
Particle size (D90 (μm)) (listed as 8): 35 μm

Cc1ncc(OC[C@@]2(c3cccc(F)c3)C[C@H]2C(=O)Nc2ccc(F)cn2)c(C)n1 [Lot 9]
Particle size (D90 (μm)) (listed as 9): 34 μm

Cc1ncc(OC[C@@]2(c3cccc(F)c3)C[C@H]2C(=O)Nc2ccc(F)cn2)c(C)n1 [Lot S1]
D90 (μm) (listed as S1): 98 μm

Cc1ncc(OC[C@@]2(c3cccc(F)c3)C[C@H]2C(=O)Nc2ccc(F)cn2)c(C)n1 [Lot S2]
D90 (μm) (listed as S2): 79 μm

Cc1ncc(OC[C@@]2(c3cccc(F)c3)C[C@H]2C(=O)Nc2ccc(F)cn2)c(C)n1 [Lot S3]
D90 (μm) (listed as S3): 64 μm

Cc1ncc(OC[C@@]2(c3cccc(F)c3)C[C@H]2C(=O)Nc2ccc(F)cn2)c(C)n1 [Lot S4]
D90 (μm) (listed as S4): 56 μm

Cc1ncc(OC[C@@]2(c3cccc(F)c3)C[C@H]2C(=O)Nc2ccc(F)cn2)c(C)n1 [Lot S5]
D90 (μm) (listed as S5): 110 μm

Cc1ncc(OC[C@@]2(c3cccc(F)c3)C[C@H]2C(=O)Nc2ccc(F)cn2)c(C)n1 [Lot S6]
D90 (μm) (listed as S6): 20 μm

Cc1ncc(OC[C@@]2(c3cccc(F)c3)C[C@H]2C(=O)Nc2ccc(F)cn2)c(C)n1 [lemborexant, (1R,2S)-2-(((2,4-dimethylpyrimidine-5-yl)oxy)methyl)-2-(3-fluorophenyl)-N-(5-fluoropyridin-2-yl)cyclopropanecarboxamide]
D90 (API used for the tablets of Example 4): 32 μm
